Patent publication US20240182445A1 (ONO PHARMACEUTICAL CO., LTD., priority 2019, published 2024)
Each block holds one compound with its values, some of them ahead of it.

Molecular target: T1, human TREK-1 (Homo sapiens, UniProt O95069)
T1 construct: expressed in transfected cells
T1 sequence (O95069 1-426): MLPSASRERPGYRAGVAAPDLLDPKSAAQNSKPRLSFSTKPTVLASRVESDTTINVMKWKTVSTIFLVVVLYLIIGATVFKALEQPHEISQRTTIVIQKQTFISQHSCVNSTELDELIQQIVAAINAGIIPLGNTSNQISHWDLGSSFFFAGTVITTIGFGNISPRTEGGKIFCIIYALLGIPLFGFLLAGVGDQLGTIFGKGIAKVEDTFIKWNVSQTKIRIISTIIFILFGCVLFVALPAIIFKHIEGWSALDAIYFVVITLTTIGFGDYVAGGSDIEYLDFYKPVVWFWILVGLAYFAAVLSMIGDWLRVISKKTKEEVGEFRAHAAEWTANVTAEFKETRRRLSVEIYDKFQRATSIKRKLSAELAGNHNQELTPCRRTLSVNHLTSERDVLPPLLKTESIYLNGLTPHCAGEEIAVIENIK
Experiment: TREK-1 Thallium (Tl+) flux assay, Method 1
Type: cell-based
Settings: TREK-1 Thallium (Tl+) flux assay; values without footnote *12 are Method 1
In short: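 Readout: Thallos fluorescence ratio, taken 25 s post-thallium relative to the pre-thallium baseline average, then converted to % inhibition. Cells were CHO-K1 stably expressing human TREK-1, dye-loaded and exposed to test compound (vehicle 0.3% DMSO) for 10 min prior to thallium stimulation.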

SMILES: Cc1cc(C#Cc2cccc(F)c2)cnc1NC(=O)c1c(Cl)cnn1CC1CCN(C(=O)C2COCCO2)CC1 (centres unmarked) [Compound 104, 1-((1-(1,4-dioxane-2-carbonyl)piperidin-4-yl)methyl)-4-chloro-N-(5-((3-fluorophenyl)ethynyl)-3-methylpyridin-2-yl)-1H-pyrazole-5-carboxamide]
- IC50: 190 nM

SMILES: CC(=O)NC1CCCC(n2ncc(Cl)c2C(=O)Nc2ncc(C#Cc3ccccc3)cc2C)C1 (centres unmarked) [Compound 107, 1-(3-acetamidocyclohexyl)-4-chloro-N-(3-methyl-5-(phenylethynyl)pyridin-2-yl)-1H-pyrazole-5-carboxamide hydrofluoride]
- IC50: 190 nM

SMILES: CC(=O)N1C[C@H]2C[C@H](n3ncc(Cl)c3C(=O)Nc3ncc(C#Cc4cccs4)cc3C)C[C@H]2C1 [Compound 110, 1-[(3aR,5s,6aS)-2-acetyloctahydrocyclopenta[c]pyrrol-5-yl]-4-chloro-N-{3-methyl-5-[(thiophen-2-yl)ethynyl]pyridin-2-yl}-1H-pyrazole-5-carboxamide]
- IC50: 200 nM

SMILES: Cc1cc(C#Cc2cccs2)cnc1NC(=O)c1c(Cl)cnn1C1CCN(C(=O)C(C)C)CC1 [Compound 111, 4-chloro-1-(1-isobutyrylpiperidin-4-yl)-N-(3-methyl-5-(thiophen-2-ylethynyl)pyridin-2-yl)-1H-pyrazole-5-carboxamide]
- IC50: 200 nM

SMILES: CC1(C(=O)N2CCC(n3ncc(Cl)c3C(=O)Nc3ncc(C#Cc4ccccc4)cc3F)CC2)CCC1 [Compound 112, 4-chloro-N-(3-fluoro-5-(phenylethynyl)pyridin-2-yl)-1-(1-(1-methylcyclobutane-1-carbonyl)piperidin-4-yl)-1H-pyrazole-5-carboxamide]
- IC50: 200 nM

SMILES: Cc1cc(C#Cc2ccc(F)cc2)cnc1NC(=O)c1c(Cl)cnn1C1CC2(C1)CN(C(=O)C1CC1)C2 [Compound 115, 4-chloro-1-(2-(cyclopropanecarbonyl)-2-azaspiro[3.3]heptan-6-yl)-N-(5-((4-fluorophenyl)ethynyl)-3-methylpyridin-2-yl)-1H-pyrazole-5-carboxamide]
- IC50: 200 nM

SMILES: Cc1cc(C#Cc2ccc(F)cc2)cnc1NC(=O)c1c(Cl)cnn1C1CC2(C1)CN(C(=O)C(C)C)C2 [Compound 116, 4-chloro-N-(5-((4-fluorophenyl)ethynyl)-3-methylpyridin-2-yl)-1-(2-isobutyryl-2-azaspiro[3.3]heptan-6-yl)-1H-pyrazole-5-carboxamide]
- IC50: 200 nM

SMILES: CC(C)C(=O)N[C@H]1CC[C@H](n2ncc(Cl)c2C(=O)Nc2ncc(C#Cc3ccccc3)cc2F)CC1 [Compound 117]
- IC50: 200 nM

SMILES: CC(=O)N1CCC(Cn2ncc(Cl)c2C(=O)Nc2ncc(C#Cc3cccs3)cc2C)CC1 [Compound 123, 1-((1-acetylpiperidin-4-yl)methyl)-4-chloro-N-(3-methyl-5-(thiophen-2-ylethynyl)pyridin-2-yl)-1H-pyrazole-5-carboxamide]
- IC50: 210 nM

SMILES: CC(C)C(=O)N[C@H]1C[C@@H](n2ncc(Cl)c2C(=O)Nc2ncc(C#Cc3ccccc3)cc2F)C1 [Compound 124, 4-chloro-N-(3-fluoro-5-(phenylethynyl)pyridin-2-yl)-1-(cis-3-isobutyramidocyclobutyl)-1H-pyrazole-5-carboxamide]
- IC50: 210 nM

SMILES: Cc1cc(C#Cc2ccc(F)cc2)cnc1NC(=O)c1c(Cl)cnn1[C@H]1CC[C@@H](NC(=O)C(C)C)CC1 [Compound 125, 4-chloro-N-(5-((4-fluorophenyl)ethynyl)-3-methylpyridin-2-yl)-1-(cis-4-isobutyramidocyclohexyl)-1H-pyrazole-5-carboxamide]
- IC50: 210 nM

SMILES: CC(=O)N1CC[C@H](n2ncc(Cl)c2C(=O)Nc2ncc(C#Cc3ccccc3)cc2C)C1 [Compound 128, (S)-1-(1-acetylpyrrolidin-3-yl)-4-chloro-N-(3-methyl-5-(phenylethynyl)pyridin-2-yl)-1H-pyrazole-5-carboxamide]
- IC50: 220 nM

SMILES: O=C(Nc1ncc(C#Cc2ccccc2)cc1F)c1c(Cl)cnn1C1CCN(C(=O)C2CC2)CC1 [Compound 130, 4-chloro-1-(1-(cyclopropanecarbonyl)piperidin-4-yl)-N-(3-fluoro-5-(phenylethynyl)pyridin-2-yl)-1H-pyrazole-5-carboxamide]
- IC50: 220 nM

SMILES: CC(=O)N1CCCC(n2ncc(Cl)c2C(=O)Nc2ncc(C#Cc3ccccc3)cc2C)CC1 (centres unmarked) [Compound 131, 1-(1-acetylazepan-4-yl)-4-chloro-N-(3-methyl-5-(phenylethynyl)pyridin-2-yl)-1H-pyrazole-5-carboxamide]
- IC50: 220 nM

SMILES: CCNC(=O)N1C[C@H]2C[C@H](n3ncc(Cl)c3C(=O)Nc3ncc(C#Cc4cccc(F)c4)cc3C)C[C@H]2C1 [Compound 132, (3aR,5s,6aS)-5-[4-chloro-5-({5-[(3-fluorophenyl)ethynyl]-3-methylpyridin-2-yl}carbamoyl)-1H-pyrazol-1-yl]-N-ethylhexahydrocyclopenta[c]pyrrole-2(1H)-carboxamide]
- IC50: 220 nM

SMILES: CC(=O)N1CCC(CCn2ncc(Cl)c2C(=O)Nc2ncc(C#Cc3cccc(F)c3)cc2C)CC1 [Compound 133, 1-(2-(1-acetylpiperidin-4-yl)ethyl)-4-chloro-N-(5-((3-fluorophenyl)ethynyl)-3-methylpyridin-2-yl)-1H-pyrazole-5-carboxamide]
- IC50: 220 nM

Continued, values first:

- IC50: 190 nM
SMILES: CC(=O)N1CCOC(Cn2ncc(Cl)c2C(=O)Nc2ncc(C#Cc3ccccc3)cc2C)C1 (centres unmarked) [Compound 105, 1-((4-acetylmorpholin-2-yl)methyl)-4-chloro-N-(3-methyl-5-(phenylethynyl)pyridin-2-yl)-1H-pyrazole-5-carboxamide]

- IC50: 190 nM
SMILES: CCC(=O)N1CCC(n2ncc(Cl)c2C(=O)Nc2ncc(C#Cc3ccccc3)cc2C)C1 (centres unmarked) [Compound 106, 4-chloro-N-(3-methyl-5-(phenylethynyl)pyridin-2-yl)-1-(1-propionylpyrrolidin-3-yl)-1H-pyrazole-5-carboxamide]

- IC50: 190 nM
SMILES: Cc1cc(C#Cc2ccccc2)cnc1NC(=O)c1c(Cl)cnn1C[C@H]1CCN(C(=O)C(C)C)C[C@H]1F [Compound 108, 4-chloro-1-(((3S,4R)-3-fluoro-1-isobutyrylpiperidin-4-yl)methyl)-N-(3-methyl-5-(phenylethynyl)pyridin-2-yl)-1H-pyrazole-5-carboxamide]

- IC50: 190 nM
SMILES: CC(=O)N1CC[C@@H](Cn2ncc(Cl)c2C(=O)Nc2ncc(C#Cc3ccccc3)cc2C)[C@@H](F)C1 [Compound 109, 1-(((3R,4S)-1-acetyl-3-fluoropiperidin-4-yl)methyl)-4-chloro-N-(3-methyl-5-(phenylethynyl)pyridin-2-yl)-1H-pyrazole-5-carboxamide]

- IC50: 200 nM
SMILES: CC(=O)N1CC2(CC(n3ncc(Cl)c3C(=O)Nc3ncc(C#Cc4ccccc4)cc3F)C2)C1 [Compound 113, 1-(2-acetyl-2-azaspiro[3.3]heptan-6-yl)-4-chloro-N-(3-fluoro-5-(phenylethynyl)pyridin-2-yl)-1H-pyrazole-5-carboxamide]

- IC50: 200 nM
SMILES: Cc1cc(C#Cc2ccccc2)cnc1NC(=O)c1c(Cl)cnn1C[C@@H]1CCN(C(=O)C(C)C)C[C@@H]1F [Compound 118, 4-chloro-1-(((3R,4S)-3-fluoro-1-isobutyrylpiperidin-4-yl)methyl)-N-(3-methyl-5-(phenylethynyl)pyridin-2-yl)-1H-pyrazole-5-carboxamide]

- IC50: 200 nM
SMILES: Cc1cc(C#Cc2ccc(F)cc2)cnc1NC(=O)c1c(Cl)cnn1CC1(C#N)CCN(C(=O)C(C)C)CC1 [Compound 119, 4-chloro-1-((4-cyano-1-isobutyrylpiperidin-4-yl)methyl)-N-(5-((4-fluorophenyl)ethynyl)-3-methylpyridin-2-yl)-1H-pyrazole-5-carboxamide]

- IC50: 210 nM
SMILES: CC(=O)N1CCC(n2ncc(Cl)c2C(=O)Nc2ncc(C#Cc3ccccc3)cc2F)C1 (centres unmarked) [Compound 121, 1-(1-acetylpyrrolidin-3-yl)-4-chloro-N-(3-fluoro-5-(phenylethynyl)pyridin-2-yl)-1H-pyrazole-5-carboxamide]

- IC50: 210 nM
SMILES: CC(=O)N1CC(n2ncc(Cl)c2C(=O)Nc2ncc(C#Cc3ccccc3)cc2C)C1 [Compound 122, 1-(1-acetylazetidin-3-yl)-4-chloro-N-(3-methyl-5-(phenylethynyl)pyridin-2-yl)-1H-pyrazole-5-carboxamide]

- IC50: 210 nM
SMILES: Cc1cc(C#Cc2ccccc2)cnc1NC(=O)c1c(Cl)cnn1CC1(C#N)CCN(C(=O)OC(C)(C)C)CC1 [Compound 126, tert-butyl 4-((4-chloro-5-((3-methyl-5-(phenylethynyl)pyridin-2-yl)carbamoyl)-1H-pyrazol-1-yl)methyl)-4-cyanopiperidine-1-carboxylate]

- IC50: 220 nM
SMILES: Cc1cc(C#Cc2ccccc2)cc(F)c1NC(=O)c1c(Cl)cnn1CC1(C#N)CC1 [Compound 127, 4-chloro-1-((1-cyanocyclopropyl)methyl)-N-(2-fluoro-6-methyl-4-(phenylethynyl)phenyl)-1H-pyrazole-5-carboxamide]

- IC50: 220 nM
SMILES: CC(=O)N1CC[C@H](n2ncc(Cl)c2C(=O)Nc2ncc(C#Cc3ccccc3)cc2F)C1 [Compound 129, (S)-1-(1-acetylpyrrolidin-3-yl)-4-chloro-N-(3-fluoro-5-(phenylethynyl)pyridin-2-yl)-1H-pyrazole-5-carboxamide]

- IC50: 220 nM
SMILES: CC(C)(C)OC(=O)N1CCC(F)(Cn2ncc(Cl)c2C(=O)Nc2ncc(C#Cc3ccccc3)cc2F)CC1 [Compound 134, tert-butyl 4-((4-chloro-5-((3-fluoro-5-(phenylethynyl)pyridin-2-yl)carbamoyl)-1H-pyrazol-1-yl)methyl)-4-fluoropiperidine-1-carboxylate]
